The record followed here is ChEMBL document CHEMBL1201862, “PubChem BioAssay data set” (2004).

Counter-ions that a name gives are not always drawn. Active and inactive are the calls of the source. A value given as a limit tells only on which side of the number the result lay.

For assay [1], the target named is T1, Mannose-6-phosphate isomerase (Homo sapiens, UniProt P34949).
T1 sequence (P34949 whole entry): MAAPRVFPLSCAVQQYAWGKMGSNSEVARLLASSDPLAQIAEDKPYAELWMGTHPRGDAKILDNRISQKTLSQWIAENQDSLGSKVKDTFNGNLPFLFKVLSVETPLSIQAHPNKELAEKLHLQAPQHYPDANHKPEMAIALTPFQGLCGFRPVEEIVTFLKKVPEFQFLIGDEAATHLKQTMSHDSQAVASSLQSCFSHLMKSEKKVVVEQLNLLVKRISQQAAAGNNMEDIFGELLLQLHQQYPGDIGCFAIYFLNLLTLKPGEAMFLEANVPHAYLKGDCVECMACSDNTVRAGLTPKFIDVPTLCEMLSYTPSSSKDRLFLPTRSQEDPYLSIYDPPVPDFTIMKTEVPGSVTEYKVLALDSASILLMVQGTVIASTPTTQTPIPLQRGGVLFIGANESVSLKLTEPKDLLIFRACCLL
The assay is described as follows: PMI enzyme inhibitors, confirmation, biochemical, fluorescence intensity (AID 1535).

Assay [2] has as its target Tyrosine-protein phosphatase non-receptor type 7 (Homo sapiens, UniProt P35236). The assay is described as follows: redox-dependent HePTP inhibition, mechanism study, biochemical, fluorescence (AID 2068). It counts as functional.
Assay [3] has as its target Dual specificity protein phosphatase 6 (Rattus norvegicus, UniProt Q64346). It counts as functional.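 Also: confirmatory in vitro dose-response testing of MKP-3 inhibition; recombinant His-tagged MKP-3 made in E. coli BL21 with OMFP substrate.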
Another assay addresses SUMO E1/E2 (Homo sapiens, UniProt P63279+Q9UBE0+Q9UBT2). The assay is described as follows: SAR analysis of SUMOylation using HTRF in an in-Vitro dose response assay. [Related pubchem assays (depositor defined):AID2006, AID2011, AID2018, AID2069, AID2658]. It counts as functional.
Assay [4] deals with T2, Voltage-gated N-type calcium channel alpha-1B subunit/Amyloid beta A4 precursor protein-binding family A member 1 (Homo sapiens, UniProt Q00975+Q02410). The assay is described as follows: disruptors of Mint-PDZ/N-type channel peptide interaction – biochemical, HTRF, set 2, SAR follow-up (AID 434980). It counts as functional. For orientation: TR-FRET usually uses a lanthanide donor and a delayed reading to cut background.

The target of assay [5] is T2, Voltage-gated N-type calcium channel alpha-1B subunit/Amyloid beta A4 precursor protein-binding family A member 1. The assay is described as follows: disruptors of Mint-PDZ/N-type channel peptide interaction – biochemical, HTRF, SAR follow-up (AID 2489). It counts as functional.
In assay [6] the target is UDP-galactopyranose mutase (Mycobacterium tuberculosis, UniProt P9WIQ1). The assay is described as follows: Inhibitors of Mycobacterium tuberculosis UDP-galactopyranose mutase (UGM) enzyme Measured in Biochemical System Using Plate Reader - 2105-02_Inhibitor_Dose_CherryPick_Activity. [Related pubchem assays (depositor defined):AID504439].
Assay [7] can be described thus: NIH-3T3 fibroblast cytotoxicity, dose response, cytotoxicity control, cell-based, fluorescence, Alamar Blue, secondary assay (AID 2327).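 Also: NIH-3T3 mouse fibroblasts cultured with fluconazole at 8 µg/mL.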 It counts as functional. For orientation: The colour change of resazurin is a common sign of viable cells or microbes.
The nature of assay [8]: C. albicans growth with fluconazole, confirmation, fluorescence, retest (AID 2467). It counts as functional, cell-based.
Assay [9] can be described thus: growth suppression of PTEN-null colon cells, dose response, cell-based, HCT116 PTEN knockout (AID 1047).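 Also: HCT116 colon tumor cells with PTEN knocked out; cells exposed to compound for 60 hours before readout; potency for loss of cell viability measured by luminescence.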 It counts as functional.
Assay [10] is described as follows: growth suppression of beta-catenin-knockout colon cells, dose response, cell-based, HCT116, human colon tumor (AID 1045).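 Also: HCT116 colon tumor cells with beta catenin knocked out; cells exposed to compound for 60 hours.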 It counts as functional.
Another assay deals with A-375. The assay is described as follows: MITF: Counter assay: A375 proliferation Measured in Cell-Based System Using Plate Reader - 2084-03_Inhibitor_Dose_DryPowder_Activity. [Related pubchem assays (depositor defined):AID488944]. It counts as functional. The settings on record: Homo sapiens.
The target of assay [11] is T3, Corticotropin-releasing factor receptor 2/Corticotropin-releasing factor-binding protein (Homo sapiens, UniProt P24387+Q13324).
T3 sequence (Q13324 whole entry): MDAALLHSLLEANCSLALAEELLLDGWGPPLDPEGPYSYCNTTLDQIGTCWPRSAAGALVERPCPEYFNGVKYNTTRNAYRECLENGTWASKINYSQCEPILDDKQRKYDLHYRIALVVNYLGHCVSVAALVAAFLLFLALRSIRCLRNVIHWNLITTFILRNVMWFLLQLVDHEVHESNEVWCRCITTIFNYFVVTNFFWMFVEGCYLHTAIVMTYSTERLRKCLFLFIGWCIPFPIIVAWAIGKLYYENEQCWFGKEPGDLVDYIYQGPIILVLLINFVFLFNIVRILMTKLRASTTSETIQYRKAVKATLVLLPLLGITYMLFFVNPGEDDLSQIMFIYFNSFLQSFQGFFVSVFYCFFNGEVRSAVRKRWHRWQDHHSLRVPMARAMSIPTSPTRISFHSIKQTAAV
T3 sequence (P24387 whole entry): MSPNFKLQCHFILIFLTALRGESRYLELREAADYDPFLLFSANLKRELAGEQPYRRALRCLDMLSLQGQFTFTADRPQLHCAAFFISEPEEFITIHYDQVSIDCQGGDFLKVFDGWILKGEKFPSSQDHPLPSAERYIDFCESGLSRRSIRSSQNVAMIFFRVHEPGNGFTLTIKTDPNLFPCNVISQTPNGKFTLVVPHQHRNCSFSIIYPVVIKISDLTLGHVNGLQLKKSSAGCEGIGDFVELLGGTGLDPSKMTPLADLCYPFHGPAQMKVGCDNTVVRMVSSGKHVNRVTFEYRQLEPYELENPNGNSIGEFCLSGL
The assay is described as follows: Dose Response confirmation of uHTS hits for small molecule antagonists of the CRF-binding protein and CRF-R2 receptor complex. It counts as functional. The note with it: read-out: IC50_Mean.

Assay [12] concerns the target T3, Corticotropin-releasing factor receptor 2/Corticotropin-releasing factor-binding protein. The assay is described as follows: activators of CRF receptor 2 with binding protein – uHTS hits, confirmation (AID 602473). It counts as functional. The note with it: read-out: EC50_Mean.
Assay [13] concerns the target Voltage-gated inwardly rectifying potassium channel KCNH2 (Homo sapiens, UniProt Q12809). The settings on record: Potency.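 Also: confirmatory quantitative high-throughput screen measuring inhibition of hERG channel activity.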

T2 sequence (Q00975 whole entry): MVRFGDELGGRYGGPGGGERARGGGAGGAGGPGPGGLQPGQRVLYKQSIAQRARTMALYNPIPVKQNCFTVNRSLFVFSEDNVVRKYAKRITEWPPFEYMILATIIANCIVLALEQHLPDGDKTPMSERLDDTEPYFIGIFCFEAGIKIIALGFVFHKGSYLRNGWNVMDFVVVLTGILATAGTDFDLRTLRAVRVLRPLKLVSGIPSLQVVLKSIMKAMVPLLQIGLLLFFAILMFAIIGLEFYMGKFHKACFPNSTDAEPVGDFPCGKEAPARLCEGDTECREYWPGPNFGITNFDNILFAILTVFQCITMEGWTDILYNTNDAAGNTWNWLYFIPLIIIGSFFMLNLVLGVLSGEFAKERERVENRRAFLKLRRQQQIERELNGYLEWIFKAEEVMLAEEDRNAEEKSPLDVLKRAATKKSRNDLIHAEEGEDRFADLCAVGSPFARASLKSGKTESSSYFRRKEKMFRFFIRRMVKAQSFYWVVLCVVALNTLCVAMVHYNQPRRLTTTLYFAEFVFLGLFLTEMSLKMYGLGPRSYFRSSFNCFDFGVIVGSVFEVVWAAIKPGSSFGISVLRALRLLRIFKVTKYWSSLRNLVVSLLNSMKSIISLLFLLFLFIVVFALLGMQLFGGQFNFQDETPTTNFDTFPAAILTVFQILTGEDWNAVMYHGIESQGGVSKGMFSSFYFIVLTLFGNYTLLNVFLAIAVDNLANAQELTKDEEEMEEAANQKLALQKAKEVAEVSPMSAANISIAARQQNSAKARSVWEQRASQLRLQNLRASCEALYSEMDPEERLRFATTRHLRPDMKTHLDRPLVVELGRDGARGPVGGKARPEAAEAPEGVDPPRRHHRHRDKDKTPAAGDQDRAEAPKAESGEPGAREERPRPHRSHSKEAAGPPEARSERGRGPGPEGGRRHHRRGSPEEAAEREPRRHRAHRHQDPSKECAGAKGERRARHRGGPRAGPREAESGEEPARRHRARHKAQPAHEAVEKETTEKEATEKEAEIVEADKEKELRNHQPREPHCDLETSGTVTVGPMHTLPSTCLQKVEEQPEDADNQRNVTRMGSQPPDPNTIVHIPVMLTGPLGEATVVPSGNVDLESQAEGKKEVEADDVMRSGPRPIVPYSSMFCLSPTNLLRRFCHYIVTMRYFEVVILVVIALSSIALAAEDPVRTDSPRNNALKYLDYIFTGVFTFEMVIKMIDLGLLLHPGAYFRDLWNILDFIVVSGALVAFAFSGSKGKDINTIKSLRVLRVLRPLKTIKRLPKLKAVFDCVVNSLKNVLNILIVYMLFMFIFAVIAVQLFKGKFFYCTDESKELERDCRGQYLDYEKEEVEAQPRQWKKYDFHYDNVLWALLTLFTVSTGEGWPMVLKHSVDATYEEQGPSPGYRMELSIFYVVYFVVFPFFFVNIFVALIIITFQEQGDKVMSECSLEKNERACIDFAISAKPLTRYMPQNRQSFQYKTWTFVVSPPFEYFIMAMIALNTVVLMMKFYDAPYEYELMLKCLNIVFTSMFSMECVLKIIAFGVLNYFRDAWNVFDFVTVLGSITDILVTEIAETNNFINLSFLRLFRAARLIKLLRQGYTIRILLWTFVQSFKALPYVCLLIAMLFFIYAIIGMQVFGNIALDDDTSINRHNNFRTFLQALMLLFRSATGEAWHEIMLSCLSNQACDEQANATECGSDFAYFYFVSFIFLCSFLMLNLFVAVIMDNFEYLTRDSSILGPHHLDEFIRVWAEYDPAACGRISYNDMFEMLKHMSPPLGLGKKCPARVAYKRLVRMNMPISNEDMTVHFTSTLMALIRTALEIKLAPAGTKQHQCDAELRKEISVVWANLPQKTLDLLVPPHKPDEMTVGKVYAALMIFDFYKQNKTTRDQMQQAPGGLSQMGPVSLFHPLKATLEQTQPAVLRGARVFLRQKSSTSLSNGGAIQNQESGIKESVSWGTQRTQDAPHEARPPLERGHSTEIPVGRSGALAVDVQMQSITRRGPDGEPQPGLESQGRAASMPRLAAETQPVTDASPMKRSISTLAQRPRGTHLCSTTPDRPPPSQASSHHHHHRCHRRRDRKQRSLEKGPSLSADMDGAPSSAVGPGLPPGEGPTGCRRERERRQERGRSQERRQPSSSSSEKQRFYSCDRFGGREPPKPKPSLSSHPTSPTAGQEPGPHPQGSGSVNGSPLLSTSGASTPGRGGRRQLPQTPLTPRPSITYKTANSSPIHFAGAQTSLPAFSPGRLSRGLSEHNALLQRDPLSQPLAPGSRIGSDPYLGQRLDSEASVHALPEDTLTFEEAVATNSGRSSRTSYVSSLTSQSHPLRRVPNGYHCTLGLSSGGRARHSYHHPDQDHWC
T2 sequence (Q02410 whole entry): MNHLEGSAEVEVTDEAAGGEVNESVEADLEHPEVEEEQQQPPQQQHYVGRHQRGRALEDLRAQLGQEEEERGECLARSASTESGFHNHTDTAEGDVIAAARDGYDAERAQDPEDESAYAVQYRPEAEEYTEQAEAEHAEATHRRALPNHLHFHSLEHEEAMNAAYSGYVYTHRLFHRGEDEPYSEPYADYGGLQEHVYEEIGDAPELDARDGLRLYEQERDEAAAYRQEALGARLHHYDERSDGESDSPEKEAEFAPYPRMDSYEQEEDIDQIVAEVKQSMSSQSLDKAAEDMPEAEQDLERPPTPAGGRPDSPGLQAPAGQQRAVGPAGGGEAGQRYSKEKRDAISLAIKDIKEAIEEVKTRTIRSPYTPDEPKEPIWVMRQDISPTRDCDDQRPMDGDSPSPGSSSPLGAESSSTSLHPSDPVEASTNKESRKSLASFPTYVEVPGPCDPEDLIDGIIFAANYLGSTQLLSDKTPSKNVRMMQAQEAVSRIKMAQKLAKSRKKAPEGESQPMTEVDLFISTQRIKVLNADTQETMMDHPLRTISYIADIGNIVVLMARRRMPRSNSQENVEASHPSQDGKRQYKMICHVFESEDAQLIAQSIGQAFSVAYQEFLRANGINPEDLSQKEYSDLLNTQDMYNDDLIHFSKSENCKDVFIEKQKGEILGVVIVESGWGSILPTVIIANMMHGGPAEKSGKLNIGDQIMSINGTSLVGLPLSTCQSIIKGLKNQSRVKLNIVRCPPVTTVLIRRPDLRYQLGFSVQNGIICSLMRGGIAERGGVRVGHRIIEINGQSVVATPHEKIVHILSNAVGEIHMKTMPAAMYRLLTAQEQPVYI
Sequence of Tyrosine-protein phosphatase non-receptor type 7 (P35236 whole entry): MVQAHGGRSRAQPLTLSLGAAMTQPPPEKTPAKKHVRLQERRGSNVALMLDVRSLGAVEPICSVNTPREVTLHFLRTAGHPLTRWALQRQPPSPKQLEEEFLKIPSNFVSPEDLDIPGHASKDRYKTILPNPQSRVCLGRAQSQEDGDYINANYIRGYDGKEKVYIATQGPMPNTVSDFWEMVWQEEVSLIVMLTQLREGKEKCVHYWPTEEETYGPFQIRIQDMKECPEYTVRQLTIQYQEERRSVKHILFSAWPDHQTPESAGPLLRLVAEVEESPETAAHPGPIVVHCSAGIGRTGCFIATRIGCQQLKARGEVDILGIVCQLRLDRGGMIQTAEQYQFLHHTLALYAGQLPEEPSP
Sequence of Dual specificity protein phosphatase 6 (Q64346 whole entry): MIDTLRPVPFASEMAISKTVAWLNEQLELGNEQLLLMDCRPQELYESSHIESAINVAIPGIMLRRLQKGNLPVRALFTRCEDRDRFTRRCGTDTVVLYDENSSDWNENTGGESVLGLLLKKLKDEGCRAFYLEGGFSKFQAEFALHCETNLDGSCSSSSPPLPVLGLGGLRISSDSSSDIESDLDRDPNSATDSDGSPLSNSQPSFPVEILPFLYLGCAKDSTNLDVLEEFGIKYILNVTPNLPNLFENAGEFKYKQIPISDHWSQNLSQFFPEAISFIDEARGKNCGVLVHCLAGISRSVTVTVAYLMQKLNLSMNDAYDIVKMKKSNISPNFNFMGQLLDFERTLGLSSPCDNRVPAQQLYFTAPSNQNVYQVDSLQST
Sequence of SUMO E1/E2 (Q9UBE0 whole entry): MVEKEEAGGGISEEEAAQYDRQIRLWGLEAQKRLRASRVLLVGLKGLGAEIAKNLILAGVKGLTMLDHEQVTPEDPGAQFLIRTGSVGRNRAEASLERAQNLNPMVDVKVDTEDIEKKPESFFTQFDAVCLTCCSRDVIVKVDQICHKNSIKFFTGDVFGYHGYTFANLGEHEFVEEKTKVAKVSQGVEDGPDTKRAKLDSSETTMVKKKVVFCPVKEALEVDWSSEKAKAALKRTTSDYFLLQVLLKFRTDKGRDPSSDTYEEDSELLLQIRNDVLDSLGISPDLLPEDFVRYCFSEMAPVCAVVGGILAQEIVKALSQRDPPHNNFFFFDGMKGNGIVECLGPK
Sequence of SUMO E1/E2 (Q9UBT2 whole entry): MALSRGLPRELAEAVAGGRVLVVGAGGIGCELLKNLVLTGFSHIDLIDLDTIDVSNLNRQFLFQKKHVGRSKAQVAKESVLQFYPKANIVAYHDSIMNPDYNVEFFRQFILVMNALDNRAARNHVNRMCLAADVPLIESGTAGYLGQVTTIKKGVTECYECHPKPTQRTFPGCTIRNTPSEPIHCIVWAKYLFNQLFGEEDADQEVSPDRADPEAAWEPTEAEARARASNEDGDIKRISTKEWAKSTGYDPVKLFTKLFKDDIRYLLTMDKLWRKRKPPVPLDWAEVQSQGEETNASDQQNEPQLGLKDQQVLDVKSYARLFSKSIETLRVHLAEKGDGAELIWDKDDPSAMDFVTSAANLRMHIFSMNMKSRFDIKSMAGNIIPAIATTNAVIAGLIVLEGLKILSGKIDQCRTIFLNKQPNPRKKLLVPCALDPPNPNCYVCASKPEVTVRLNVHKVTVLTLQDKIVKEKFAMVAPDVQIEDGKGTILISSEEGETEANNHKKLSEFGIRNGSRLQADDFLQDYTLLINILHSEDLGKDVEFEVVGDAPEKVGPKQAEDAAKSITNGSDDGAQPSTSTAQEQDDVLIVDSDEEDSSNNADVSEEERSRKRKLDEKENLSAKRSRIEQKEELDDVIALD
Sequence of SUMO E1/E2 (P63279 whole entry): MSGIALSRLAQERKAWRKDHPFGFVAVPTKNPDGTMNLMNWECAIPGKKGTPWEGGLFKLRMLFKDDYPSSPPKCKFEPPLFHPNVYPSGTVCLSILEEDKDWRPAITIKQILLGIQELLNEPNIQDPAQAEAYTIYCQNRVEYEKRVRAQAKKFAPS

As to `O=c1c2cc(F)ccc2sn1-c1ccccc1F`, the IC50 in assay [1] was 5.3 µM (active).
In the case of `CCN(CC)C(=S)c1ccc(O)c(OC)c1`, the IC50 in [2] was 4.42 µM (active); in assay [3] it was > 100 µM (inactive).
Turning to `O=C(COC(=O)c1cc(-c2ccco2)nc2ccccc12)NCc1cccc(Cl)c1`, the IC50 on SUMO E1/E2 was 4.63 µM (active); in assay [4] it was 30.7 µM (active); in assay [5], 23.7 µM (active).
One may read the AC50 as the midpoint of the concentration-response curve, whichever way the signal moves. As to `O=C(NCC1CCCO1)c1cccc2c1C(=O)c1ccc(N3CCC(Cc4ccccc4)CC3)cc1S2(=O)=O` (stereo not given), the AC50 in assay [6] was 52.6 µM (active).
With `CCOc1cc(/C=N/N=C(N)N)ccc1OCc1ccc(Cl)cc1`, the EC50 in assay [7] is 81.2 µM (active); in assay [8], > 38 µM (not active); in assay [9] it was 3.92 µM (active); in [10], 3.01 µM (active). Also, the AC50 in the assay on A-375 was 18 µM (active).
`c1ccc(C2CN3CCSC3=N2)cc1` (stereo not given) [TETRAMISOLE HYDROCHLORIDE]: in assay [11], the IC50 is > 47.1 µM (inactive). For the same molecule, the EC50 in assay [12] was > 53 µM (inactive). In [13], the half-maximal activity concentration (AC50) was 35.5 µM (inconclusive).
